Test results: patent US20080200454A1, “CARBON-LINKED TETRAHYDRO-PYRAZOLO-PYRIDINE MODULATORS OF CATHEPSIN S” (priority 2007, published 2008)

These molecules were tested against Recombinant human cathepsin S (CatS) (Homo sapiens, UniProt P25774) (assay: Recombinant human cathepsin S (CatS) inhibition assay, fluorogenic substrate Z-Valine-Valine-Arginine-AMC). Conditions: not given.
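Note: Baculovirus-expressed CatS in pH 5.0 sodium acetate buffer with DTT and NaCl, fluorescence read each minute over 20 min, inhibition derived from rate slope.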

Sequence of Recombinant human cathepsin S (CatS) (P25774 115-331): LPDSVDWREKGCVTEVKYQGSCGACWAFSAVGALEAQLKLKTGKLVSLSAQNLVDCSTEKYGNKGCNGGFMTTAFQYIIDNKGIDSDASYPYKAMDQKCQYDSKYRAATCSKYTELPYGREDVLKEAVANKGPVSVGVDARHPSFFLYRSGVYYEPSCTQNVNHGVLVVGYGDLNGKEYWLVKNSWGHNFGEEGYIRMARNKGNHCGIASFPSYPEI

Q: With `CC(C)(C)OC(=O)NC1CCN(CC(O)Cn2nc(-c3ccc(Cl)c(C#Cc4ccc(Cl)cc4)c3)c3c2CCN(S(C)(=O)=O)C3)CC1` (centres unmarked) [Example 130, [1-(3-{3-[4-Chloro-3-(4-chloro-phenylethynyl)-phenyl]-5-methanesulfonyl-4,5,6,7-tetrahydro-pyrazolo[4,3-c]pyridin-1-yl}-2-hydroxy-propyl)-piperidin-4-yl]-carbamic acid tert-butyl ester] as the molecule, how does the IC50 read?
A: Its IC50 is 80 nM.

Q: Which IC50 does the source give for `CS(=O)(=O)N1CCc2c(c(-c3ccc(Cl)c(C#Cc4ccc5c(c4)CNCC5)c3)nn2CCCN2CCN(c3ccccc3)CC2)C1` [Example 225, 7-[(2-Chloro-5-{5-(methylsulfonyl)-1-[3-(4-phenylpiperazin-1-yl)propyl]-4,5,6,7-tetrahydro-1H-pyrazolo[4,3-c]pyridin-3-yl}phenyl)ethynyl]-1,2,3,4-tetrahydroisoquinoline] here?
A: Its IC50 is 10 nM.

Q: With `C[C@H]1COCCN1CCCn1nc(-c2ccc(Cl)c(C#Cc3ccc(Cl)c(CNC[C@@H]4CCCO4)c3)c2)c2c1CCN(C(=O)C(N)=O)C2` [Example 267, 2-{3-[4-Chloro-3-(4-chloro-3-{[((2S)-tetrahydro-furan-2-ylmethyl)-amino]-methyl}-phenylethynyl)-phenyl]-1-[3-((3S)-3-methyl-morpholin-4-yl)-propyl]-1,4,6,7-tetrahydro-pyrazolo[4,3-c]pyridin-5-yl}-2-oxo-acetamide] as the molecule, how does the IC50 read?
A: The IC50 was 10 nM.

Q: `CS(=O)(=O)N1CCc2c(c(-c3ccc(Cl)c(C#CCO)c3)nn2CCCN2CCC(N3CCCC3=O)CC2)C1` [Example 310, 1-[1-(3-{3-[4-Chloro-3-(3-hydroxyprop-1-yn-1-yl)phenyl]-5-(methylsulfonyl)-4,5,6,7-tetrahydro-1H-pyrazolo[4,3-c]pyridin-1-yl}propyl)piperidin-4-yl]pyrrolidin-2-one] was tested. Which IC50 did it give?
A: The IC50 was 2120 nM.

Q: How did the IC50 turn out when `NC(=O)C(=O)N1CCc2c(c(-c3ccc(Cl)c(C#Cc4ccc(Cl)c(C(=O)NC[C@@H]5CCNC5)c4)c3)nn2CCCN2CCSCC2)C1` [Example 578, 5-[(5-{5-[Amino(oxo)acetyl]-1-(3-thiomorpholin-4-ylpropyl)-4,5,6,7-tetrahydro-1H-pyrazolo[4,3-c]pyridin-3-yl}-2-chlorophenyl)ethynyl]-2-chloro-N-[(3R)-pyrrolidin-3-ylmethyl]benzamide] was run?
A: Its IC50 is 20 nM.

Q: How did the IC50 turn out when `NC(=O)N1CCc2c(c(-c3ccc(Cl)c(C#Cc4ccc(Cl)c(CNC5CCCC5)c4)c3)nn2CCCN2CCSCC2)C1` [Example 599, 3-[4-Chloro-3-({4-chloro-3-[(cyclopentylamino)methyl]phenyl}ethynyl)phenyl]-1-(3-thiomorpholin-4-ylpropyl)-1,4,6,7-tetrahydro-5H-pyrazolo[4,3-c]pyridine-5-carboxamide] was run?
A: Its IC50 is 30 nM.

Q: For `CC(C)(C)OC(=O)N1CCC(C2CCN(C[C@H](O)Cn3nc(-c4ccc(Cl)c(C#Cc5ccc(Cl)cc5)c4)c4c3CCN(C(N)=O)C4)CC2)CC1` [Example 237, 1,1-Dimethylethyl 1′-{(2S)-3-[5-(aminocarbonyl)-3-{4-chloro-3-[(4-chlorophenyl)ethynyl]phenyl}-4,5,6,7-tetrahydro-1H-pyrazolo[4,3-c]pyridin-1-yl]-2-hydroxypropyl}-4,4′-bipiperidine-1-carboxylate], which IC50 is on record?
A: Its IC50 is 10 nM.

Q: For `CS(=O)(=O)N1CCc2c(c(-c3ccc(Cl)c(CCCN)c3)nn2CCCN2CCOCC2)C1` [Example 304, 3-{2-Chloro-5-[5-(methylsulfonyl)-1-(3-morpholin-4-ylpropyl)-4,5,6,7-tetrahydro-1H-pyrazolo[4,3-c]pyridin-3-yl]phenyl}propan-1-amine], which IC50 is on record?
A: The IC50 was 17000 nM.

Q: `CC(C)(C)OC(=O)NCc1ccc(C#Cc2cc(-c3nn(CCCN4CCOCC4)c4c3CN(S(C)(=O)=O)CC4)ccc2Cl)cc1` [Example 40, (4-{2-Chloro-5-[5-methanesulfonyl-1-(3-morpholin-4-yl-propyl)-4,5,6,7-tetrahydro-1H-pyrazolo[4,3-c]pyridin-3-yl]-phenylethynyl}-benzyl)-carbamic acid tert-butyl ester] was tested. Which IC50 did it give?
A: Its IC50 is 410 nM.

Q: `CC(=O)NCCCc1cc(-c2nn(CCCN3CCOCC3)c3c2CN(S(C)(=O)=O)CC3)ccc1Cl` [Example 87, N-(3-{2-Chloro-5-[5-methanesulfonyl-1-(3-morpholin-4-yl-propyl)-4,5,6,7-tetrahydro-1H-pyrazolo[4,3-c]pyridin-3-yl]-phenyl}-propyl)-acetamide] was tested. Which IC50 did it give?
A: Its IC50 is 11400 nM.

Same assay, conditions: CatS IC50

Q: For `COC(=O)CNCc1ccc(C#Cc2cc(-c3nn(CCCN4CCOCC4)c4c3CN(S(C)(=O)=O)CC4)ccc2Cl)cc1` [Example 347, Methyl N-{[4-({2-chloro-5-[5-(methylsulfonyl)-1-(3-morpholin-4-ylpropyl)-4,5,6,7-tetrahydro-1H-pyrazolo[4,3-c]pyridin-3-yl]phenyl}ethynyl)phenyl]methyl}glycinate], which IC50 is on record?
A: The IC50 was 610 nM.

Q: How did the IC50 turn out when `CS(=O)(=O)N1CCc2c(c(-c3ccc(Cl)c(C#Cc4cccc(C=O)c4)c3)nn2CCCN2CCOCC2)C1` [Example 184, 3-({2-Chloro-5-[5-(methylsulfonyl)-1-(3-morpholin-4-ylpropyl)-4,5,6,7-tetrahydro-1H-pyrazolo[4,3-c]pyridin-3-yl]phenyl}ethynyl)benzaldehyde] was run?
A: Its IC50 is 320 nM.

Q: Which IC50 does the source give for `O=C(CO)N1CCc2c(c(-c3ccc(Cl)c(C#Cc4ccc(CNCc5ccc(Cl)cc5)cc4)c3)nn2CCCN2CCN(c3ccccc3)CC2)C1` [Example 172, 2-{3-(4-Chloro-3-{[4-({[(4-chlorophenyl)methyl]amino}methyl)phenyl]ethynyl}phenyl)-1-[3-(4-phenylpiperazin-1-yl)propyl]-1,4,6,7-tetrahydro-5H-pyrazolo[4,3-c]pyridin-5-yl}-2-oxoethanol] here?
A: The IC50 was 30 nM.

Q: Which IC50 does the source give for `CS(=O)(=O)N1CCc2c(c(-c3ccc(Cl)c(C#Cc4ccc(CNCc5ccc(Cl)cc5)cc4)c3)nn2CCCN2CCCOCC2)C1` [Example 399, 1-{4-[(2-Chloro-5-{5-(methylsulfonyl)-1-[3-(1,4-oxazepan-4-yl)propyl]-4,5,6,7-tetrahydro-1H-pyrazolo[4,3-c]pyridin-3-yl}phenyl)ethynyl]phenyl}-N-[(4-chlorophenyl)methyl]methanamine] here?
A: Its IC50 is 110 nM.

Q: With `CS(=O)(=O)N1CCc2c(c(-c3ccc(Cl)c(C#Cc4ccc(NCc5ccccc5)cc4)c3)nn2CCCN2CCOCC2)C1` [Example 321, 4-({2-Chloro-5-[5-(methylsulfonyl)-1-(3-morpholin-4-ylpropyl)-4,5,6,7-tetrahydro-1H-pyrazolo[4,3-c]pyridin-3-yl]phenyl}ethynyl)-N-(phenylmethyl)aniline] as the molecule, how does the IC50 read?
A: Its IC50 is 4650 nM.

Q: For `CS(=O)(=O)N1CCc2c(c(-c3ccc(Cl)c(C#Cc4ccc(CNCc5ccc(Cl)cc5)cc4)c3)nn2CCCN2CCC(N3CCCCC3=O)CC2)C1` [Example 338, 1′-{3-[3-(4-Chloro-3-{[4-({[(4-chlorophenyl)methyl]amino}methyl)phenyl]ethynyl}phenyl)-5-(methylsulfonyl)-4,5,6,7-tetrahydro-1H-pyrazolo[4,3-c]pyridin-1-yl]propyl}-1,4′-bipiperidin-2-one], which IC50 is on record?
A: The IC50 was 20 nM.

Same assay, conditions: CatS IC50, Table 2; average of results obtained

Q: How did the IC50 turn out when `Cc1ccccc1C#Cc1cc(-c2nn(CCCN3CCOCC3)c3c2CN(S(C)(=O)=O)CC3)ccc1Cl` [Example 35, 3-(4-Chloro-3-o-tolylethynyl-phenyl)-5-methanesulfonyl-1-(3-morpholin-4-yl-propyl)-4,5,6,7-tetrahydro-1H-pyrazolo[4,3-c]pyridine] was run?
A: The IC50 was 1050 nM.
